Tested on: C2C12-derived myotubes
Experiment: Mitochondrial calcium rise (mitochondrial aequorin) in caffeine-stimulated C2C12-derived myotubes
Format: cell-based, mouse
Details: evoked by 5 mM caffeine, vs 0.5 mM calcium in the medium
Description: To test the effect of Oleuropein, its metabolites and calcium supplementation/deficiency in living cells, the inventors measured mitochondrial calcium elevation in HeLa cells and in myotubes differentiated from both mouse C2C12 cells and human primary adult muscle cells. HeLa cells and C2C12 cells were purchased from ATCC. Human Skeletal Muscle Myoblasts (HSMM) were purchased from Lonza. HSMM were isolated from the upper arm or leg muscle tissue of normal donors and used after the second passage. HeLa cells were seeded in 96-well plates at a density of 50000 cells per well in minimal essential medium (DMEM, Gibco), high glucose, +10% fetal calf serum. C2C12 cells were seeded in 96-well plates at a density of 8000 cells per well in DMEM high glucose (Gibco)+10% fetal calf serum. Myotubes were differentiated from C2C12 cells by growing the cells in DMEM containing 2% horse serum, for 4 days. HSMM were seeded in 96-well plates at a density of 8000 cells per well in DMEM/F-12 (Gibco). […]
For treatment, compounds were directly added to the cell culture or myotubes cultures 2 hours before measurements. Luminescence was measured at the Cytation 3 cell imaging reader (Biotek) or at the FLIPR Tetra Aequorin (Molecular Devices). […] Custom module analysis based on Excel (Microsoft) and GhaphPad Prism 7.02 (GraphPad) software was used for quantification.

## [Ca+2] [calcium]
P<0.05, listed as Ca^2+
  integrated mitochondrial calcium rise, effect of extracellular calcium abundance: activates mitochondrial Ca^2+ elevation in a dose/response manner
P<0.05, listed as Ca′
  integrated mitochondrial calcium rise, effect of extracellular calcium abundance: enhances mitochondrial Ca′ elevation in a dose/response manner

Reference: patent publication US20220211750A1, “COMPOSITIONS AND METHODS USING A COMBINATION OF CALCIUM AND AT LEAST ONE OF OLEUROPEIN OR METABOLITE THEREOF” (SOCIETE DES PRODUITS NESTLE S.A., priority 2019, published 2022)
